Source: patent US10549237B2, “Regenerable draw solute for osmotically driven processes” (NANYANG TECHNOLOGICAL UNIVERSITY, priority 2015, dated 2020)

What was measured:
[1] = Residual Na2HPO4 concentration after acetone extractive crystallization of the supernatant (Example 2); format: physicochemical; conditions: acetone added to 10 wt % supernatant; lowest value, depends on amount of solvent
Procedure: […]. There is an instantaneous phase separation resulting in precipitation of solid crystal hydrates upon acetone addition. The mixture was allowed to settle for 1 hour before the solid crystals are removed. […] The Na2HPO4 concentration in water/acetone mixtures were then calculated accordingly. All the measurements were repeated for three times.

[2] = Water flux during forward osmosis in a cross-flow setup (Example 3, FIG. 2); conditions: 40 wt % draw solution
Procedure: Water flux during FO was measured in a cross-flow setup by monitoring the feed solution weight decrease with time. The method is adapted from a reported standard procedure. The initial weight of feed solution and draw solution was 500 g and 200 g, respectively. The effective membrane area was 58.5 cm^2. The feed and draw solutions flew in co-current in order to reduce the tension stress on membrane. The flow rate was 400 ml/min and plastic spacers were used in both feed and draw sides to reduce concentration polarization. During the tests, the temperature in draw solution and feed solution were monitored to be 50±1° C. and 46±2° C. respectively. The concentrations of feed solution and draw solution were kept virtually constant during the measurement. Water flux measurements were conducted in both FO mode (selective membrane layer facing towards feed solution) and PRO mode (selective layer facing towards draw solution). The water flux was calculated by: Flux=Δm/(A*t) (1)
Where Δm is the value of feed solution weight decrease (kg), t is the corresponding measurement time (h) and A is the membrane area in square meters. Therefore, the flux is in unit of liter per square meter per hour (LMH) if the density of water is assumed to be 1 kg/L.

Substance: Disodium phosphate
- residual Na2HPO4 concentration after extractive crystallization [1]: 0.28 wt %
- water flux ([2]; feed 3.5 wt % NaCl (artificial seawater), FO mode, draw 50±1° C., feed 46±2° C.): 8 LMH
- water flux ([2]; feed 3.5 wt % NaCl (artificial seawater), PRO mode, draw 50±1° C., feed 46±2° C.): 19 LMH
- water flux ([2]; feed 17 wt % NaCl): about 1.0 LMH
